Measured values from patent US4639433A, “Glycopeptide derivatives” (Eli Lilly and Company, priority 1985, dated 1987).
Values after ≈ are worked out from the molar mass of the structure shown.

Columns and labels:
[1] = tested on: Staphylococcus aureus S13E; conditions: agar dilution
[2] = tested on: Klebsiella pneumoniae X26; conditions: agar dilution
[3] = tested on: Streptococcus pyogenes C203; conditions: agar dilution
[4] = tested on: Klebsiella pneumoniae X68; conditions: agar dilution
[5] = tested on: Escherichia coli EC14; conditions: agar dilution
[6] = tested on: Klebsiella pneumoniae KAE; conditions: agar dilution
[7] = tested on: Staphylococcus epidermidis 222; conditions: agar dilution
[8] = tested on: Haemophilus influenzae 76; conditions: agar dilution
[9] = tested on: Staphylococcus epidermidis EPI1; conditions: agar dilution
[10] = tested on: Escherichia coli N10; conditions: agar dilution
[11] = tested on: Streptococcus sp. group D 2041; conditions: agar dilution
[12] = tested on: Staphylococcus aureus; assay: Experimental bacterial infection in mice, ED50; type: in vivo; conditions: two doses, administered subcutaneously
[13] = tested on: Streptococcus pyogenes; assay: Experimental bacterial infection in mice, ED50; type: in vivo; conditions: two doses, administered subcutaneously
[14] = tested on: Escherichia coli TEM; conditions: agar dilution
[15] = tested on: Staphylococcus aureus V41; conditions: agar dilution
[16] = tested on: Staphylococcus aureus X400; conditions: agar dilution
[17] = tested on: Staphylococcus aureus NRRL B313; conditions: agar dilution
[18] = tested on: Haemophilus influenzae C.L.; conditions: agar dilution
[19] = tested on: Streptococcus pneumoniae Park 1; conditions: agar dilution
[20] = tested on: Streptococcus pneumoniae; assay: Experimental bacterial infection in mice, ED50; type: in vivo; conditions: two doses, administered subcutaneously
[21] = tested on: Streptococcus faecium ATCC 9790; conditions: agar dilution

Row | Compound | MIC [1] [µg/mL] | MIC [2] | MIC [3] [µg/mL] | MIC [4] | MIC [5] | MIC [6] | MIC [7] [µg/mL] | MIC [8] | MIC [9] [µg/mL] | MIC [10] | MIC [11] [µg/mL] | ED50 [12] | ED50 [13] | MIC [14] | MIC [15] [µg/mL] | MIC [16] [µg/mL] | MIC [17] [µg/mL] | MIC [18] | MIC [19] [µg/mL] | MIC [21] [µg/mL] | further results
1 | CCCC(=O)NC1(C)CC(OC2C(Oc3c4cc5cc3Oc3ccc(cc3Cl)C(O)C3NC(=O)C(NC(=O)C5NC(=O)C(CC(N)=O)NC(=O)C(NC(=O)C(CC(C)C)NC)C(O)c5ccc(c(Cl)c5)O4)c4ccc(O)c(c4)-c4c(O)cc(O)cc4C(C(=O)O)NC3=O)OC(CO)C(O)C2O)OC(C)C1O (stereo not drawn) [Compound 1, N^van --(1-oxo-n-butyl)vancomycin] | 2 (≈ 1.32 µM) | -- (not active at 128 mcg/ml) | 1 (≈ 0.658 µM) | -- (not active at 128 mcg/ml) | -- (not active at 128 mcg/ml) | -- (not active at 128 mcg/ml) | 4 (≈ 2.63 µM) | -- (not active at 128 mcg/ml) | 8 (≈ 5.27 µM) | -- (not active at 128 mcg/ml) | 8 (≈ 5.27 µM) | 6.3 mg/kg/2 | 5.5 mg/kg/2 | -- (not active at 128 mcg/ml) | 2 (≈ 1.32 µM) | 2 (≈ 1.32 µM) | 2 (≈ 1.32 µM) | -- (not active at 128 mcg/ml) | 1 (≈ 0.658 µM) | 2 (≈ 1.32 µM) | ED50 [20]: 3.6 mg/kg/2
2 | CCCCCC(=O)NC1(C)CC(OC2C(Oc3c4cc5cc3Oc3ccc(cc3Cl)C(O)C3NC(=O)C(NC(=O)C5NC(=O)C(CC(N)=O)NC(=O)C(NC(=O)C(CC(C)C)NC)C(O)c5ccc(c(Cl)c5)O4)c4ccc(O)c(c4)-c4c(O)cc(O)cc4C(C(=O)O)NC3=O)OC(CO)C(O)C2O)OC(C)C1O (stereo not drawn) [Compound 2, N^van --(1-oxo-n-hexyl)vancomycin] | 4 (≈ 2.58 µM) | -- (not active at 128 mcg/ml) | 2 (≈ 1.29 µM) | -- (not active at 128 mcg/ml) | -- (not active at 128 mcg/ml) | -- (not active at 128 mcg/ml) | 8 (≈ 5.17 µM) | 128 µg/mL (≈ 82.7 µM) | 16 (≈ 10.3 µM) | -- (not active at 128 mcg/ml) | 16 (≈ 10.3 µM) | 11.2 mg/kg/2 | 12.9 mg/kg/2 | -- (not active at 128 mcg/ml) | 4 (≈ 2.58 µM) | 4 (≈ 2.58 µM) | 2 (≈ 1.29 µM) | -- (not active at 128 mcg/ml) | 2 (≈ 1.29 µM) | 4 (≈ 2.58 µM) | ED50 [20]: 3.5 mg/kg/2
3 | CNC(CC(C)C)C(=O)NC1C(=O)NC(CC(N)=O)C(=O)NC2C(=O)NC3C(=O)NC(C(=O)NC(C(=O)O)c4cc(O)cc(O)c4-c4cc3ccc4O)C(O)c3ccc(c(Cl)c3)Oc3cc2cc(c3OC2OC(CO)C(O)C(O)C2OC2CC(C)(NC(=O)C(N)C(C)C)C(O)C(C)O2)Oc2ccc(cc2Cl)C1O (stereo not drawn) [Compound 33, N^van --(2-amino-1-oxo-isopentyl)vancomycin] | 8 (≈ 5.17 µM) | -- (not active at 128 mcg/ml) | 8 (≈ 5.17 µM) | -- (not active at 128 mcg/ml) | -- (not active at 128 mcg/ml) | -- (not active at 128 mcg/ml) | 32 (≈ 20.7 µM) | -- (not active at 128 mcg/ml) | 32 (≈ 20.7 µM) | -- (not active at 128 mcg/ml) | 32 (≈ 20.7 µM) |  |  | -- (not active at 128 mcg/ml) | 8 (≈ 5.17 µM) | 32 (≈ 20.7 µM) | 8 (≈ 5.17 µM) | -- (not active at 128 mcg/ml) | 8 (≈ 5.17 µM) | 8 (≈ 5.17 µM) | 
4 | CNC(CC(C)C)C(=O)NC1C(=O)NC(CC(N)=O)C(=O)NC2C(=O)NC3C(=O)NC(C(=O)NC(C(=O)O)c4cc(O)cc(O)c4-c4cc3ccc4O)C(O)c3ccc(c(Cl)c3)Oc3cc2cc(c3OC2OC(CO)C(O)C(O)C2OC2CC(C)(NC(=O)CC(C)C)C(O)C(C)O2)Oc2ccc(cc2Cl)C1O (stereo not drawn) [Compound 34, N^van --(1-oxo-isopentyl)vancomycin] | 2 (≈ 1.3 µM) | -- (not active at 128 mcg/ml) | 1 (≈ 0.652 µM) | -- (not active at 128 mcg/ml) | -- (not active at 128 mcg/ml) | -- (not active at 128 mcg/ml) | 4 (≈ 2.61 µM) | -- (not active at 128 mcg/ml) | 8 (≈ 5.22 µM) | -- (not active at 128 mcg/ml) | 8 (≈ 5.22 µM) |  |  | -- (not active at 128 mcg/ml) | 2 (≈ 1.3 µM) | 2 (≈ 1.3 µM) | 2 (≈ 1.3 µM) | -- (not active at 128 mcg/ml) | 1 (≈ 0.652 µM) | 2 (≈ 1.3 µM) | 
5 | CNC(CC(C)C)C(=O)NC1C(=O)NC(CC(N)=O)C(=O)NC2C(=O)NC3C(=O)NC(C(=O)NC(C(=O)O)c4cc(O)cc(O)c4-c4cc3ccc4O)C(O)c3ccc(c(Cl)c3)Oc3cc2cc(c3OC2OC(CO)C(O)C(O)C2OC2CC(C)(NC(=O)CCCCCBr)C(O)C(C)O2)Oc2ccc(cc2Cl)C1O (stereo not drawn) [Compound 35, N^van --(6-bromo-n-hexyl)vancomycin] | 2 (≈ 1.23 µM) | -- (not active at 128 mcg/ml) | 2 (≈ 1.23 µM) | -- (not active at 128 mcg/ml) | -- (not active at 128 mcg/ml) | -- (not active at 128 mcg/ml) | 4 (≈ 2.46 µM) | -- (not active at 128 mcg/ml) | 8 (≈ 4.92 µM) | -- (not active at 128 mcg/ml) | 8 (≈ 4.92 µM) |  |  | -- (not active at 128 mcg/ml) | 2 (≈ 1.23 µM) | 4 (≈ 2.46 µM) | 2 (≈ 1.23 µM) | -- (not active at 128 mcg/ml) | 1 (≈ 0.615 µM) | 2 (≈ 1.23 µM) | 
6 | CNC(CC(C)C)C(=O)NC1C(=O)NC(CC(N)=O)C(=O)NC2C(=O)NC3C(=O)NC(C(=O)NC(C(=O)O)c4cc(O)cc(O)c4-c4cc3ccc4O)C(O)c3ccc(c(Cl)c3)Oc3cc2cc(c3OC2OC(CO)C(O)C(O)C2OC2CC(C)(NC(=O)CCC(C)=O)C(O)C(C)O2)Oc2ccc(cc2Cl)C1O (stereo not drawn) [Compound 36, N^van --(3-acetyl-1-oxo-n-propyl)vancomycin] | 4 (≈ 2.59 µM) | -- (not active at 128 mcg/ml) | 1 (≈ 0.646 µM) | -- (not active at 128 mcg/ml) | -- (not active at 128 mcg/ml) | -- (not active at 128 mcg/ml) | 4 (≈ 2.59 µM) | -- (not active at 128 mcg/ml) | 16 (≈ 10.3 µM) | -- (not active at 128 mcg/ml) | 8 (≈ 5.17 µM) |  |  | -- (not active at 128 mcg/ml) | 2 (≈ 1.29 µM) | 2 (≈ 1.29 µM) | 2 (≈ 1.29 µM) | -- (not active at 128 mcg/ml) | 1 (≈ 0.646 µM) | 4 (≈ 2.59 µM) | 
7 | CN[C@H](CC(C)C)C(=O)N[C@H]1C(=O)N[C@@H](CC(N)=O)C(=O)N[C@H]2C(=O)N[C@H]3C(=O)N[C@H](C(=O)N[C@H](C(=O)O)c4cc(O)cc(O)c4-c4cc3ccc4O)[C@H](O)c3ccc(c(Cl)c3)Oc3cc2cc(c3O[C@@H]2O[C@H](CO)[C@@H](O)[C@H](O)[C@H]2O[C@H]2C[C@](C)(N)[C@H](O)[C@H](C)O2)Oc2ccc(cc2Cl)[C@H]1O [vancomycin, reference compound] |  |  |  |  |  |  |  |  |  |  |  | 1.8-3.7 mg/kg/2 | 0.99-1.1 mg/kg/2 |  |  |  |  |  |  |  | ED50 [20]: 0.90-0.93 mg/kg/2
